Measured values: patent US8614203B2, “Methods for the treatment of a central nervous system injury via a tapered administration protocol” (Emory University, priority 2005, dated 2013)

Assays:
ischemic injury = conditions: following ischemic injury in rats (Jiang et al. 1996); cited from earlier work
p53 = assay: Example 4: Western blotting densitometry, p53; assay type: in vivo, Sprague-Dawley rats; conditions: all progesterone-treated animals (AW and TW); two weeks post-withdrawal
Description: 60 male Sprague-Dawley rats weighing 290-310 g at the time of injury were used in this experiment. Food and water were provided ad libidum before and after surgery. Animals were handled and weighed daily from their arrival, seven days pre-surgery, to brain extraction three weeks post-surgery. Animals were handled in squads of 12, with n=10 per experimental condition. All animal procedures were approved by the Emory University Animal Care and Use Committee, Protocol #131-2002.
Isofluorane anesthesia was induced for four minutes and 45 seconds at 5% and maintained at 2.5%. Normal body temperature was maintained with a surgical heating pad placed beneath the sterile dressings. The scalp incision area was shaved and sterilized with iodine and isopropanol. A midline incision was made along the scalp and the fascia cleared to expose the surface of the skull. Medial, lateral, and dorsal stereotaxic coordinates were determined at bregma, and a 5-7 mm diameter bilateral craniotomy was performed mid-sagitally, 3 mm anterior to bregma. […] Sutures were used to close the incision after bleeding ceased. […]
Brains for protein analysis were sectioned into the immediate area of the lesion and snap frozen in 2-methyl-butane chilled on dry ice. […] The amount of brain homogenate needed to standardize samples to 2 μg/μL for Western blotting was calculated from the results of these assays. […]

HSP70 = assay: Example 3: Western blot of brain tissue, HSP70; assay type: in vivo, Sprague-Dawley rats; conditions: TWI vs AWI vs VI, 3 weeks post-injury
Description: Male Sprague-Dawley rats received either medial frontal cortex injury or sham surgery. Injections were given 1 and 6 hours post-injury, and every 24 hours for 7 days. Treatment groups (n=8) encompassed injured (I) and sham (S) acute withdrawal (AW), tapered withdrawal (TW) and vehicle (V) treatments. TW injections were progressively halved over the final two treatments. Behavioral testing was conducted post-surgery, mid- and post-withdrawal. Activity boxes were used to investigate vertical movements and exploration: Sensory neglect and anxiety behaviors were also analyzed. Brain harvesting was performed at 8 days or 3 weeks post-injury. Perfused tissue sections were analyzed for lesion volume and immunohistochemical response. Fresh brain tissue was flash frozen in chilled 2-methyl butane, and then homogenized for Western blot analysis.

[1] = system: bilateral contusions of the medial prefrontal cortex; assay: Example 1: bilateral sensory neglect (BSN) task after TBI; assay type: in vivo, Sprague-Dawley rats; conditions: 4 mg/kg, 3 days (LP3); 6 and 20 days post injury
Description: Male Sprague-Dawley rats (300 g) were housed individually in wire cages and kept on a reverse light-dark cycle (0800-2000 h). […] All procedures involving animals conformed to guidelines set forth in the Guide for the Care and Use of Laboratory Animals (U.S. Department of Health and Human Services, Pub no. 85-23, 1985) and were approved by the Emory University Institutional Animal Care and Use Committee.
Bilateral contusions of the medial prefrontal cortex were created by a pneumatic impactor device as previously described. Briefly, rats were given anesthetized with ketamine/xylazine (90 mg/kg; 10 mg/kg) and placed in a stereotaxic apparatus. […]
Experienced individuals who were blind to treatment conditions of the study conducted all histological and behavioral analyses. All data were tested for normality and homoschedasticity before being analyzed by parametric analysis of variance (ANOVA). MWM results were analyzed using separate mixed-factorial (4 groups×5 days) analysis of variance (ANOVA) on each of the two 5-day testing periods (acquisition and retention respectively). Results of the BSN task were analyzed using the mixed-factorial ANOVA (4 groups×2 post-injury trials). […]
Measures of attentional abilities, using a bilateral sensory neglect (BSN) task, were recorded one day prior to surgery (baseline) and on postsurgical days 6 and 20. […]

In the case of `CC(=O)[C@H]1CC[C@H]2[C@@H]3CCC4=CC(=O)CC[C@]4(C)[C@H]3CC[C@]12C` [progesterone, pregn-4-ene-3,20-dione], the “cell damage and neurological deficit” value (ischemic injury) is listed as “reduce cell damage and neurological deficit”, the “p53 levels (long-term marker of apoptosis)” value (p53) is listed as “p53 levels indistinguishable from vehicle shams” and the HSP70 expression (HSP70) is listed as “increased for TWI over AWI over VI at 3 weeks post-injury”. The “BSN task performance (latency to remove adhesive stimuli)” value [1] was “impaired on this task compared to control animals at both 6 and 20 days post injury”.
